According to patent US7442801B2, “Pyrazole compound” (Sumitomo Chemical Company, Limited, priority 2003, dated 2008):

Tested on: Tetranychus urticae
Test: Test Example 1: Controlling Rate against Tetranychus urticae on brush bean, spray
Format: in vivo
Conditions: 500 ppm, 30 ml sprayed on brush bean (Phaseolus vulgaris) with female adults
Experimental: Each of the present compounds (2) to (15), (17) to (33), (36) to (40) and the comparative compound described below was formulated according to Formulation Example 5, and each formulations was diluted with water so that the concentration of the present compound or the comparative compound came to 500 ppm.
About twenty female adults of Tetranychus urticae were set free on brush bean (Phaseolus vulgaris) in the primary leaf stage, which had been potted in a plastic cup for 7 days after the seeding. After 1 day, a 30 ml of the diluted formulation described-above was sprayed over the plant. On the 8th and 13th day after the application, the numbers of lived Tetranychus urticae on the leaf of brush bean plant were examined, and the Controlling Rates were calculated by the following scheme. Controlling Rate=100×{1−(a number of lived Tetranychus urticae in the treatment)/(a number of lived Tetranychus urticae in the non-treatment)}

## Cc1nn(C)c(Oc2ccc(Oc3ccc(C(F)(F)F)cc3)cc2)c1C=NOCc1ccccc1 [comparative compound]
8th day after the application
  Controlling Rate: less than 30%
13th day after the application
  Controlling Rate: less than 30%
